Data reported in PMC6015065, “Linear Cyclodextrin Polymer Prodrugs as Novel Therapeutics for Niemann-Pick Type C1 Disorder” (Scientific Reports, 2018).
Where two headings read alike, the source gives them in different places.

Experiments:
[1] = Pharmacokinetics after single intravenous dose (100 mg/kg); assay type: in vivo, BALB/c mice; settings: BALB/c, mouse
Method: (§1) LC/MS/MS (HPβCD) and HPLC-UV (ORX-301) were used for analysis in the studies. The bioanalytical method for HPβCD was linear, accurate, and precise in the concentration range of 5.4 and 500 µg/ml, with an LLOQ = 5.4 µg/ml, and met all the acceptance criteria.
(§2) Pharmacokinetic analysis and MTD studies were carried out in BALB/c mice purchased from Taconic Biosciences. Protocols and procedures of these studies were approved by the Institutional Animal Ethics Committee based on CPCSEA (India) guidelines.
(§3) Plasma was harvested and stored at −80 °C.

[2] = Pharmacokinetics after single subcutaneous dose (500 mg/kg); assay type: in vivo, BALB/c mice; settings: BALB/c, mouse, plasma
Method: as §1, §2, §3

[3] = in vivo; settings: BALB/c, mouse, sc, 500 mg/kg; for AUC(0-t): AUClast; for Kp: Tissue/Plasma Ratio
Method: The vehicle used for dissolution of test compounds was 0.9% Normal Saline. […] The formulations were prepared on the day of the study. The test compounds were administered at 100 mg/kg for the IV study and 500 mg/kg for the SC study. For the tissue distribution study, again 500 mg/kg was administered by the SC route.
Post dose, blood, or the relevant tissue in the case of the distribution study was collected at time points of 2 min, 5 min, 15 min, 30 min, 1 h, 2 h, 4 h, 24 h, 36 h and 48 h. From each mouse terminal blood samples were collected by cardiac puncture under isoflurane anaesthesia. The blood was collected in 2 ml Eppendorf tubes containing 0.020 ml of 10% K2EDTA, mixed gently and placed in ice before centrifugation. Plasma was harvested and stored at −80 °C. […] The PK analysis was performed using Non-compartmental methods in Phoenix WinNonlin 6.4 [Pharsight, Certara]. The mean concentration-time data were used for computing the PK parameters. The AUC was computed using the linear up-log down method. The following NCA parameters were estimated for the IV PK: Systemic Clearance [CL], Vss [Volume of distribution at steady state], first order elimination rate constant [ke], terminal half-life [t1/2], AUC0-t, AUC0-∞. For the SC PK study: Cmax, tmax, ke, t1/2, AUC0-t, AUC0-∞ and the absolute SC bioavailability [F] was estimated using the equation: F(%)=(AUCsc/AUCiv)∗(Doseiv/Dosesc)∗100

[4] = tested on: Npc1^nmf164 mice; assay: Early intervention efficacy study (treatment from 2 weeks of age); assay type: in vivo; settings: for Mean bodyweight: Npc1^nmf164 mice, 800 mg/kg SC weekly
Method: Control group mice received plain PBS (sham, group).
The body weight was recorded weekly and a score ranging from 0 to 5 was assigned to each mouse (Table 3) as previously performed. The motor co-ordination phenotype was assessed by the balance beam test every two weeks as previously described. Briefly, the mouse was placed perpendicularly at the center of a horizontal round beam (covered with paper tape, outer diameter 2 cm, length 1 m, divided into 10 sections and placed 50 cm above a padded surface) and the number of beam sections crossed in a 180 s time interval was recorded. Although the test relies on muscle strength and limb tone, it is well validated for the assessment of fine motor coordination and balance. […] The end-point of data collection was established as mouse weight approaching 13 g[40].

[5] = tested on: Calbindin in Purkinje cells of Npc1^nmf164 mice; assay: Calbindin detection by immunofluorescence on cerebellar sections; assay type: in vivo; settings: 10 weeks-old Npc1^nmf164 mice, 800 mg/kg SC weekly from 2 weeks
Method: Sham-treated control mice were injected with plain PBS.
Brains were quickly dissected, fixed overnight at 4 °C in 4% PFA and processed as previously described[52]. Briefly, fixed brains were dehydrated by incubation in 15–30% sucrose in PBS, embedded in FSC 22 Clear Frozen Section Compound (Leica Biosystems, Milano, Italy) and serially sectioned (slice thickness 10 µm) using a cryostat (Leica CM 1900). Sagittal sections were mounted on X-tra Adhesive glass slides (Leica biosystems). Sections were processed for immunofluorescence using a mouse monoclonal Calbindin antibody (Anti-Calbindin D28K, Sigma, Milan, Italy; 1:500 dilution in PBS) as routinely performed in our lab. A permeabilization step performed by incubating sections in 0.1% Triton X-100 in PBS for 10 min was followed by a 3 h incubation in a blocking solution containing 5% goat serum, 1% BSA, 0.2% Triton X-100 in PBS. Sections were then incubated over night with a 1:500 primary antibody dilution in PBS and, after several washes with PBS, with a TRITC-conjugated anti-mouse secondary antibody (Zymed-Thermo Fisher Scientific, Milan, Italy).

[6] = cited from earlier work
[7] = tested on: Npc1^nmf164 mice; set-up: method as in PMID 26888431; settings: HPβCD full dose 4000 mg/kg; cited from earlier work
[8] = tested on: Npc1^nih/nih mice; settings: cited from earlier work
[9] = 800 mg/kg SC weekly from 2 weeks of age

`CC(O)COC[C@H]1O[C@@H]2O[C@H]3[C@H](O)[C@@H](O)[C@@H](O[C@H]4[C@H](O)[C@@H](O)[C@@H](O[C@H]5[C@H](O)[C@@H](O)[C@@H](O[C@H]6[C@H](O)[C@@H](O)[C@@H](O[C@H]7[C@H](O)[C@@H](O)[C@@H](O[C@H]8[C@H](O)[C@@H](O)[C@@H](O[C@H]1[C@H](O)[C@H]2O)O[C@@H]8COCC(C)O)O[C@@H]7COCC(C)O)O[C@@H]6COCC(C)O)O[C@@H]5COCC(C)O)O[C@@H]4COCC(C)O)O[C@@H]3COCC(C)O` (stereo partly drawn) [HPβCD, 2-hydroxypropyl-β-cyclodextrin] gave a concentration at 24 h ([1]; in vivo, iv, 100 mg/kg) of 4.95 µg/mL, a tlast ([1]; in vivo, iv, 100 mg/kg) of 24 h and a bioavailability ([1]; plasma, 500 mg/kg, printed under the Intravenous columns, read-out: Absolute Bioavailability) of 42%. For the same molecule, the half-life ([1]; plasma, iv, 100 mg/kg, intravenous 100 mg/kg) was ~14 h, the clearance ([1]; plasma, single IV dose 100 mg/kg) was 0.85 mL/min/kg and the Vd ([1]; plasma, single IV dose 100 mg/kg, read-out: Vss) was 0.18 L/kg. It also gave an AUC(0-inf) ([1]; intravenous 100 mg/kg, plasma) of 1960 µg·h/mL, an AUC(0-t) ([1]; intravenous 100 mg/kg, plasma) of 1860 µg·h/mL and a Tmax ([1]; intravenous 100 mg/kg, plasma) of 4.98 min. For the same molecule, the bioavailability ([2]; subcutaneous 500 mg/kg vs intravenous 100 mg/kg, read-out: Absolute Bioavailability) was 42%, the AUC(0-inf) ([2]; sc, subcutaneous 500 mg/kg) was 4140 µg·h/mL and the AUC(0-t) ([2]; sc, subcutaneous 500 mg/kg) was 4020 µg·h/mL. The Cmax ([2]; sc, subcutaneous 500 mg/kg) was 4610 µg/mL, the Tmax ([2]; sc, subcutaneous 500 mg/kg) was 4.98 min and the half-life ([2]; sc, subcutaneous 500 mg/kg) was 16.7 h. It also gave an AUC(0-t) ([3]; kidney) of 2950 µg·h/mL, an AUC(0-t) ([3]; liver) of 127 µg·h/mL and an AUC(0-t) ([3]; spleen) of 828 µg·h/mL. It also gave a Kp ([3]; kidney) of 0.63, a Kp ([3]; liver) of 0.03 and a Kp ([3]; spleen) of 0.18. The “body weight loss progression” value [4, 9] was “less severe and slower progressing weight loss”, the “improvement of performance in the balance beam test” value [4, 9] was “only temporarily observed up to 9-weeks of age” and the mean lifespan [4, 9] was 150 ± 2.55 days. The “improvement in mean survival” value ([4]; 800 mg/kg SC weekly from 2 weeks of age, vs sham-treated) was 35%, the Mean bodyweight ([4]; post-natal week 2) was 7.43 ± 0.30 g and the Mean bodyweight ([4]; post-natal week 3) was 10.37 ± 0.33 g. The Mean bodyweight ([4]; post-natal week 4) was 13.31 ± 0.53 g, the Mean bodyweight ([4]; post-natal week 5) was 17.24 ± 0.65 g and the Mean bodyweight ([4]; post-natal week 6) was 18.58 ± 0.75 g. For the same molecule, the Mean bodyweight ([4]; post-natal week 7) was 20.25 ± 0.84 g, the Mean bodyweight ([4]; post-natal week 8) was 20.85 ± 0.94 g and the Mean bodyweight ([4]; post-natal week 9) was 20.55 ± 1.03 g. For the same molecule, the Mean bodyweight ([4]; post-natal week 10) was 19.92 ± 0.81 g, the “Calbindin staining of Purkinje cells” value [5] was “markedly reduced Calbindin staining” and the “fraction that reaches the brain upon systemic administration” value ([6]; ref 25, 53) was 0.2–1.5%. The “fraction that reaches the brain upon systemic administration” value ([6]; ref 25) was “less than 0.2%”, the mean lifespan [7] was 170 to 180 days and the effect on lifespan ([8]; single injection at day 49, Npc1^nih/nih mice) was “did not significantly improve the lifespan”. For the same molecule, the “dosage required for improvement of survival” value ([8]; weekly injections started at day 42, Npc1^nih/nih mice) was “at least 1000 mg/kg”.
